Results from a melting point compilation (Tetko et al.; mined from patent text by program, amines drawn as free bases though some values may be those of a salt).

SMILES	melting point [°C]
C#Cc1c(C#N)nn(-c2c(Cl)cc(OC(F)(F)F)cc2Cl)c1N	176
O=C1CN(CCN2CC(=O)N(CN3CCCC3)C(=O)C2)CC(=O)N1CN1CCCC1	150 to 155
Nc1c(Cl)cc(C(O)CNCCCCOCCSCCc2ccccc2)cc1Cl (stereo unspecified)	74 to 77
Brc1cn(C(c2ccccc2)(c2ccccc2)c2ccccc2)nc1-c1ccccc1	181 to 183
O=C(O)CC1(CC(O)=NO)CCCCC1	104
Cc1c(C)c(C=O)c2c(c1C)CC(C)(C)O2	87 to 88
Cc1ccc(NS(=O)(=O)c2cccs2)c2[nH]c(C(=O)NCCSC(c3ccccc3)(c3ccccc3)c3ccccc3)cc12	241 to 242
Nc1cc(Br)nc(Cl)c1OC(F)F	138 to 140
CCN(CC)C(C)CNc1ccc(NCC(C)N(CC)CC)c2c1C(=O)c1c(O)ccc(O)c1C2=O (stereo unspecified)	126 to 128
COC(=O)c1nn(C2CCCCO2)cc1NC(=O)c1cc(Cl)ccn1 (stereo unspecified)	201 to 203
CCCCCCCCCCc1nnn(C(C(=O)O)c2ccccc2)n1 (stereo unspecified)	62 to 64
CCSc1cc(C)nc(SCC)c1NC(=O)CCCCSc1nc2cccc(C(F)(F)F)c2o1	155 to 156
C[Si](C)(C)OC(Cn1ccnc1)(Cn1cncn1)c1ccc(Cl)cc1Cl (stereo unspecified)	82 to 85
Fc1ccc(C2(Cn3ncnc3S)OC2c2ccccc2Cl)cc1 (stereo unspecified)	179 to 180
O=C1CCc2cc(O)ccc21	185 to 187
ClC12CCCC(C1)C1CCC2C1 (stereo unspecified)	68 to 69
CN(C)S(=O)(=O)n1c(C(=S)NC(O)C(Cl)(Cl)Cl)nc2cc(Cl)c(Cl)cc21 (stereo unspecified)	158 to 160

SMILES	melting point [°C]
CN(CC1CCCCC1)C(=O)c1ccc2nonc2c1	71 to 72
CCCCOCCCNC(=O)c1cnc(C(=O)NCC(=O)OCc2ccccc2)c(OC)c1	97 to 99
O[C@@H]1CNC[C@H]1Oc1cccc(Cl)c1 (relative stereo)	128 to 129
Clc1ccc(OCc2ccccc2)c(OCC2CO2)c1Cl (stereo unspecified)	59 to 61
COc1ccc(S(=O)(=O)n2c(Cl)nc3c2c(=O)n(CC2CC2)c(=O)n3CC2CC2)cc1	118
CN1C(=O)Cc2cccc(Cl)c21	111 to 113
O=C(N[C@@H]1CN[C@H]2CCO[C@H]21)C(F)(F)F (relative stereo)	106 to 110
COC(=O)N1CCc2cc(S(=O)(=O)Cl)ccc21	113 to 114
O=S(=O)(c1ccccc1)c1nccc2c1CCCC2	109 to 112
O=[N+]([O-])c1ccc(Cc2nnco2)cc1	104 to 105
CC[N+](CC)(CC)C1CC(=O)N1C(C(=O)OCc1ccc([N+](=O)[O-])cc1)=C([O-])CCSC (stereo unspecified)	91
CC(C)(C)OC(=O)[C@H]1C[C@@H](C(=O)OCc2ccccc2)[C@@H](c2ccccc2)N1C(=O)CNC(=O)Nc1cccc(C(=O)OCc2ccccc2)c1 (racemic)	110
CCCCCCCc1c(C(C)C)nc(C(C)C)c(CO)c1-c1ccc(F)cc1	73 to 75
CCOC(=O)C1=C[C@@H](OC(CC)CC)[C@@H](NC(C)=O)[C@H](O)[C@@H]1O	154
O=C(CCl)COc1cccc(C(F)(F)F)c1	38 to 39
CCOC(=O)C1=C(C)NC(=S)N(C(=O)OCC)C1c1cccc2nonc12 (stereo unspecified)	144 to 146

The remaining lines, values ahead:

melting point [°C]	SMILES
260	CCn1c(COc2ccc(NC(=O)c3cc(F)cc(N4CCOCC4)c3)c3ccccc23)n[nH]c1=O
209 to 213	CCOc1ccc(-n2c(-c3ccc(SC)cc3)nc(SC)c(C#N)c2=O)cc1
148 to 149	CCC(C)(Oc1ccc(F)cc1F)C(=O)Nc1nc(CC(=O)O)cs1 (stereo unspecified)
192 to 193	CCCCSc1cc(C(=O)O)cc(S(N)(=O)=O)c1Sc1ccccc1
146	Cc1cc(=O)c(Oc2ccc(F)cc2C)c(-c2ccc(S(C)(=O)=O)cc2)o1
118 to 119	O=C1NCC(Cc2ccc(Oc3ccccc3)cc2)O1 (stereo unspecified)
180	COc1cccc(N(C)C)c1C(=O)NC(=O)Nc1cccc(C(F)(F)F)c1
162 to 165	O=C(NCc1ccc(Cl)cc1)c1ccc2cccnc2c1O
90 to 92	O=C1CN(CCCOc2ccc(NC(=O)c3cc(F)cc(N4CCCCC4)c3)c3ccccc23)CCN1
123 to 124	CCOC(=O)c1c(C)nc2c(c1Cl)c1ccccc1n2C
174 to 176	O=C(COc1ccc(Cl)c2c(=O)c3ccccc3sc12)c1ccccc1
101 to 102	Cc1oc(-c2ccccc2)nc1C(C)O (stereo unspecified)
235 to 237	O=C(Nc1ccc(O)cc1O)c1cc(Cl)c(O)c(Cl)c1
92.5	O=C1N(c2cc(Cl)cc(Cl)c2)C(=O)C2(Cc3ccc(Br)cc3)CNCCN12 (stereo unspecified)
139 to 140	CCCc1c(C(=O)NCc2ccc3cc(OCC(=O)OC)ccc3c2)cnn1-c1ccc(Cl)cc1
102 to 103	O=C(O)C(=O)c1ccc(OCCOc2ccccc2)cc1
217 to 221	O=C(O)Cc1ccc(-c2cn3ccccc3n2)cc1
116 to 117	O=C(O)COc1ccc(OCCCCc2ccccc2)cc1
75 to 77	Cc1ccc2c(Cl)ccnc2c1N

melting point [°C]	SMILES
222 to 225	COc1cccc2c(Nc3cccc(N(C)C)c3)c(C#N)cnc12
143	Nc1ccc2c(c1)C(=Cc1cccs1)c1ccccc1-2
110 to 112	Nc1cn2cc(Sc3ccccc3)ccc2n1
144 to 145	COc1cccc(CC(=O)O)c1OCCCCc1cn(-c2ccc(C(F)(F)F)cn2)nc1C(C)C
129 to 130	CCN(CC)C(=O)c1cc(-c2ccc(OC)cc2)c2ccccc2c1OC
270 to 272	Cc1ccc(-c2cc3ccc(C(=O)O)cc3o2)cc1
194 to 196	NC(=NO)c1cc2c(Oc3ccc(Cl)cc3)cncc2s1
115 to 116	CSc1ccccc1NC(=O)Nc1ccc(N2CCN(C(=O)Nc3ccc(OCCO)cc3C(F)(F)F)CC2)cc1
229 to 232	CC(O)(c1ccncc1)c1cnc(-c2ccc(F)cc2)s1 (stereo unspecified)
103 to 105	CCCCc1nc2cc(-c3ccccc3)cc(C(=O)OC)c2n1Cc1ccccc1Cl
205 to 206	NC(=O)c1ccc2cc(O)ccc2c1
157 to 161	CC(=O)N1N=C(c2ccc([N+](=O)[O-])c(C)c2)c2cc3c(cc2CC1C(N)=O)OCO3 (stereo unspecified)
> 220	O=C1NC(=O)c2cc(Nc3ccc(F)cc3)c(Nc3ccc(F)cc3)cc21
127 to 130	COc1ccc(S(=O)(=O)n2ccc3ccnc(-c4ccco4)c32)cc1
151 to 152	Cc1onc(-c2c(Cl)cccc2Cl)c1CSc1ccc(OCC(=O)O)c2c1CCC2
138 to 140	Cc1cc2c(Cl)cc(F)c(-c3ccc(C(F)(F)F)n(C)c3=O)c2o1
61 to 62	O=C(Cc1ccccn1)Nc1ccc(CCCc2ccccc2OCc2ccccc2)cc1
200	O=c1cccc(-c2ccccc2)[nH]1
102 to 104	COc1cccc(-n2[nH]c(Cc3c(C)n(C(=O)c4ccc(Cl)cc4)c4ccc(OC)cc34)cc2=O)c1
